Source: PMC10721329, “Quisinostat is a brain-penetrant radiosensitizer in glioblastoma” (JCI Insight, 2023)
Values joined by “and” are separate entries in the source; they are usually repeats but may differ in a detail not shown here. Identical values can stand only once. Like-named read-outs stand apart in the source and are kept apart here.

Columns and labels:
[1] = Plasma pharmacokinetics by route of administration (IP, SC, OG); assay type: in vivo, athymic nude mice; conditions: for AUC(0-t): athymic nude (Foxn1nu), single dose 10 mg/kg, athymic nude mice, read-out: AUClast (plasma)
Method: Because the efficacy of QST in preclinical models of brain tumors remains controversial, and because previous studies employed various drug delivery methods, we sought to understand how different routes of administration affect the bioavailability of QST in mice. Three routes of administration were compared to determine the optimal dosing route to obtain the highest plasma exposure to QST over time. We treated athymic nude mice with a single dose of QST (10 mg/kg) through intraperitoneal (IP), subcutaneous (SC), or oral gavage (OG) delivery and collected blood at 0.5, 1, 2, 4, 6, 8, and 24 hours after dosing from individual mice for PK analysis (Figure 5A). […] Therefore, IP delivery was the optimal route of administration to maximize the bioavailability of QST in athymic nude mice.
QST concentrations in specimens were measured using reverse-phase LC on the AB SCIEX QTRAP6500+ LC-MS/MS system by operating electrospray in the positive ion mode. For liquid chromatographic separation, gradient elution was performed using a Phenomenex Kinetex F5 100 Å column (100 × 2.1 mm, 2.6 μm). The initial composition of the mobile phase was 70% phase A (0.1% formic acid in water) and 30% phase B (0.1% formic acid in 1:1 acetonitrile/methanol) with a 0.35 mL/min flow rate. Gradient elution was achieved as follows: mobile phase (B) was maintained at 30% from 0 to 0.3 minutes, increased to 95% from 0.3 to 0.8 minutes, maintained at 95% from 0.8 to 2.5 minutes, and decreased to 30% from 2.5 to 2.8 minutes. The total run time was 3.5 minutes. The internal standard used in this study was D8-infigratinib. The retention times for QST and D8-infigratinib were 1.6 and 1.8 minutes, respectively. Mass-to-charge ratio transitions were as follows: 395.20 → 144.00 (QST) and 568.08 → 321.00 (D8-infigratinib). LC-MS/MS analysis was performed using an Analyst 1.7 Chromatographic Data System. See Supplemental Methods for detailed PK experiments. […]
Preparation of QST for In Vivo Use
For in vivo preparation, QST was dissolved in 50% polyethylene glycol (PEG) 300, 50% sterile water solution for 10 mg/kg dosing. The suspension was then sonicated for 10 minutes to allow the drug to completely dissolve. Finally, the pH of both the drug and the vehicle solutions was adjusted to 7.4 before intraperitoneal dosing.
Determination of Optimal Administration Route
Foxn1nu nude male mice (The Jackson Laboratory) were used to determine the drug administration route that would result in the best QST bioavailability. Three cohorts of mice were treated with a single dose of 10 mg/kg QST delivered through intraperitoneal, subcutaneous, or oral gavage routes (3 mice per cohort). Following administration of the single dose, approximately 30 µL of blood was drawn from the tip of the tails at the following time points: 0.5, 1, 2, 4, 6, 8, and 24 hours. The collected blood was immediately centrifuged at 3000 rpm for 10 minutes at 4 °C to separate plasma, which was subsequently flash frozen. At the 24 - hour time point, following the last blood sample collection, mice were sacrificed and the whole brains from each mouse were dissected and flash-frozen for subsequent analysis. […]
Calibration Standards and Quality Control Samples
Stock solutions of standard (1 mM QST) and IS (250 µM D8-infigratinib) were prepared in acetonitrile. Working solutions for calibration curve standards and quality controls (QCs) were prepared by dilutions with a 40% methanol mixture aqueous solution. The IS precipitation solution (10 nM) was prepared from the IS stock solutions by dilution with methanol. Calibration standards and batch qualifying QCs were freshly spiked for every batch. For sample analysis in human and mouse matrices, calibration standards were prepared in bulk by spiking appropriate amounts of working solutions into blank human plasma, used as a surrogate matrix due to the instability of QST in mouse plasma. For sample analysis in neural stem cell media and cell […]

BT145 cells = test: Cell cycle analysis, propidium iodide flow cytometry; assay type: cell-based, human
Method: (§1) For cell cycle analysis following short -term DMSO or QST treatment in GSC cultures, approximately 1 million cells were harvested, washed in cold 1× PBS once, and fixed with 3–4 mL of ice cold 70% ethanol, added dropwise while vortexing. Cells were fixed on ice for 30 minutes and washed twice with 1× PBS. Cells were then resuspended in 500 μL of propidium iodide/RNAse staining buffer (BD Biosciences, 550825) for 15 minutes at room temperature before analysis. Data from all the samples were obtained using a Fortessa flow cytometer (BD Biosciences) and analyzed using the FlowJo software (TreeStar). Cell cycle analysis was performed in triplicate for all cell lines.

GB126 cells = test: as above; assay type: cell-based, human
Method: as §1

[2] = QST at IC50, 24 hours, replicates

Cn1cc(CNCC2CCN(c3ncc(C(=O)NO)cn3)CC2)c2ccccc21 [QST, quisinostat]
[QST] in plasma ([1]; IP 10 mg/kg single dose, 0.5 h, individual mice, 10 mg/kg): 347 nmol/L and 1180 nmol/L and 730 nmol/L | [QST] in plasma ([1]; IP 10 mg/kg single dose, 1 h, individual mice, 10 mg/kg): 268 nmol/L and 778 nmol/L and 432 nmol/L | [QST] in plasma ([1]; IP 10 mg/kg single dose, 2 h, individual mice, 10 mg/kg): 70.8 nmol/L and 154 nmol/L and 237 nmol/L | [QST] in plasma ([1]; IP 10 mg/kg single dose, 4 h, individual mice, 10 mg/kg): 22.3 nmol/L and 40.2 nmol/L and 126 nmol/L | [QST] in plasma ([1]; IP 10 mg/kg single dose, 6 h, individual mice, 10 mg/kg): 12.5 nmol/L and 15.1 nmol/L and 47 nmol/L | [QST] in plasma ([1]; IP 10 mg/kg single dose, 8 h, individual mice, 10 mg/kg): 8.68 nmol/L | [QST] in plasma ([1]; IP 10 mg/kg single dose, 24 h, individual mice, 10 mg/kg): 0.963 nmol/L and 0.894 nmol/L | [QST] in plasma ([1]; OG 10 mg/kg single dose, 0.5 h, individual mice): not detectable and 7.12 nmol/L | [QST] in plasma ([1]; OG 10 mg/kg single dose, 1 h, individual mice): not detectable and 4.92 nmol/L | [QST] in plasma ([1]; OG 10 mg/kg single dose, 2 h, individual mice): not detectable and 10.8 nmol/L | [QST] in plasma ([1]; OG 10 mg/kg single dose, 4 h, individual mice): not detectable and 44.7 nmol/L and 3.91 nmol/L | [QST] in plasma ([1]; OG 10 mg/kg single dose, 6 h, individual mice): not detectable and 5.16 nmol/L | [QST] in plasma ([1]; OG 10 mg/kg single dose, 8 h, individual mice): not detectable and 1.29 nmol/L and 4.22 nmol/L | [QST] in plasma ([1]; OG 10 mg/kg single dose, 24 h, individual mice): not detectable and 0.965 nmol/L | [QST] in plasma ([1]; SC 10 mg/kg single dose, 0.5 h, individual mice, 10 mg/kg): 482 nmol/L and 355 nmol/L | [QST] in plasma ([1]; SC 10 mg/kg single dose, 1 h, individual mice, 10 mg/kg): 617 nmol/L and 493 nmol/L | [QST] in plasma ([1]; SC 10 mg/kg single dose, 2 h, individual mice, 10 mg/kg): 169 nmol/L and 281 nmol/L and 430 nmol/L | [QST] in plasma ([1]; SC 10 mg/kg single dose, 4 h, individual mice, 10 mg/kg): 41.6 nmol/L and 61.2 nmol/L and 96.2 nmol/L | [QST] in plasma ([1]; SC 10 mg/kg single dose, 6 h, individual mice, 10 mg/kg): 14.4 nmol/L and 21.7 nmol/L and 34.8 nmol/L | [QST] in plasma ([1]; SC 10 mg/kg single dose, 8 h, individual mice, 10 mg/kg): 7.48 nmol/L and 13.4 nmol/L and 15.5 nmol/L | [QST] in plasma ([1]; SC 10 mg/kg single dose, 24 h, individual mice, 10 mg/kg): 0.909 nmol/L and 0.187 nmol/L and 0.208 nmol/L | concentration at 8 h ([1]; male, Foxn1nu athymic nude, mouse, plasma, ip, 10 mg/kg, IP 10 mg/kg single dose, 8 h, individual mice, read-out: [QST] in plasma): 15.9 nM | concentration at 24 h ([1]; male, Foxn1nu athymic nude, mouse, plasma, ip, 10 mg/kg, IP 10 mg/kg single dose, 24 h, individual mice, read-out: [QST] in plasma): 1.2 nM | concentration at 0.5 h ([1]; male, Foxn1nu athymic nude, mouse, plasma, oral, 10 mg/kg, OG 10 mg/kg single dose, 0.5 h, individual mice, read-out: [QST] in plasma): 8.17 nM | concentration at 1 h ([1]; male, Foxn1nu athymic nude, mouse, plasma, oral, 10 mg/kg, OG 10 mg/kg single dose, 1 h, individual mice, read-out: [QST] in plasma): 7.64 nM | concentration at 2 h ([1]; male, Foxn1nu athymic nude, mouse, plasma, oral, 10 mg/kg, OG 10 mg/kg single dose, 2 h, individual mice, read-out: [QST] in plasma): 8.86 nM | concentration at 6 h ([1]; male, Foxn1nu athymic nude, mouse, plasma, oral, 10 mg/kg, OG 10 mg/kg single dose, 6 h, individual mice, read-out: [QST] in plasma): 4.91 nM | concentration at 24 h ([1]; male, Foxn1nu athymic nude, mouse, plasma, oral, 10 mg/kg, OG 10 mg/kg single dose, 24 h, individual mice, read-out: [QST] in plasma): 0.81 nM | concentration at 0.5 h ([1]; male, Foxn1nu athymic nude, mouse, plasma, sc, 10 mg/kg, SC 10 mg/kg single dose, 0.5 h, individual mice, read-out: [QST] in plasma): 300 nM | concentration at 1 h ([1]; male, Foxn1nu athymic nude, mouse, plasma, sc, 10 mg/kg, SC 10 mg/kg single dose, 1 h, individual mice, read-out: [QST] in plasma): 418 nM | concentration at 8 h ([1]; male, Foxn1nu athymic nude, mouse, plasma, IP 10 mg/kg single dose, 8 h, individual mice, read-out: [QST] in plasma): 25.7 nM | AUC(0-t) ([1]; male, mouse, plasma, oral, OG): 0.106 µM·h | AUC(0-t) ([1]; male, mouse, plasma, IP): 1.2 µM·h | AUC(0-t) ([1]; male, mouse, plasma, SC): 1.19 µM·h | Cell Cycle Phase (% of cells), G1 (BT145 cells; [2]): 33.6% and 37% and 36.8% | Cell Cycle Phase (% of cells), G2 (BT145 cells; [2]): 48.8% and 41.5% and 48% | Cell Cycle Phase (% of cells), S (BT145 cells; [2]): 16.4% and 20.3% and 13.8% | Mean proportion of cells in G1 (BT145 cells; QST, 24 hours): 36% | Mean proportion of cells in G2 (BT145 cells; QST, 24 hours): 46% | Mean proportion of cells in S (BT145 cells; QST, 24 hours): 17% | Cell Cycle Phase, G1 (GB126 cells; [2]): 37.77 and 45.07 and 43.79 | Cell Cycle Phase, G2 (GB126 cells; [2]): 7.41 and 0 and 1.63 | Cell Cycle Phase, S (GB126 cells; [2]): 54.82 and 54.93 and 54.58 | Mean proportion of cells in G1 (GB126 cells; QST, 24 hours): 42% | Mean proportion of cells in G2 (GB126 cells; QST, 24 hours): 3% | Mean proportion of cells in S (GB126 cells; QST, 24 hours): 55%
